pIC50: −log10 of the molar value.
What was measured:
FGFR2 = biological target: T1, FGFR2 (Homo sapiens, UniProt P21802); assay: FGFR2 Biochemical Caliper Assay (KinEASE-TK kit); details: 0.07 nM FGFR2; compound incubated with protein 10 min, reaction 45 min at RT; read-out: FGFR2 Cliper IC50
T1 construct: purchased Carna 08-134

SNU16 cells = assay: SNU16 Cancer Cell Line Proliferation Assay (CellTiter-Glo); format: cell-based; details: Homo sapiens, SNU-16, 72 h
Procedure, shortened: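 SNU16 cells at 5000/well exposed to 9-point 3-fold serial compound dilutions (DMSO control) for 72 h at 37 °C, 5% CO2. Viability read by luminescence; IC50 calculated from dose-response.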

FGFR3 = biological target: T2, FGFR3 (Homo sapiens, UniProt P22607); assay: FGFR3 Biochemical Caliper Assay (KinEASE-TK kit); details: ratio FGFR3/FGFR2 of the biochemical assay
T2 construct: purchased Carna 08-135
Procedure, shortened: (§1)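 KinEASE-TK HTRF readout: enzyme at 0.2 nM (FGFR1, FGFR3) preincubated 10 min at RT with 10-point 3-fold compound dilutions before TK-substrate/ATP start.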

FGFR1 = biological target: T3, FGFR1 (Homo sapiens, UniProt P11362); assay: FGFR1 Biochemical Caliper Assay (KinEASE-TK kit); details: ratio FGFR1/FGFR2 of the biochemical assay
T3 construct: purchased Carna 08-133
Procedure, shortened: as §1

T3 sequence (P11362 22-822): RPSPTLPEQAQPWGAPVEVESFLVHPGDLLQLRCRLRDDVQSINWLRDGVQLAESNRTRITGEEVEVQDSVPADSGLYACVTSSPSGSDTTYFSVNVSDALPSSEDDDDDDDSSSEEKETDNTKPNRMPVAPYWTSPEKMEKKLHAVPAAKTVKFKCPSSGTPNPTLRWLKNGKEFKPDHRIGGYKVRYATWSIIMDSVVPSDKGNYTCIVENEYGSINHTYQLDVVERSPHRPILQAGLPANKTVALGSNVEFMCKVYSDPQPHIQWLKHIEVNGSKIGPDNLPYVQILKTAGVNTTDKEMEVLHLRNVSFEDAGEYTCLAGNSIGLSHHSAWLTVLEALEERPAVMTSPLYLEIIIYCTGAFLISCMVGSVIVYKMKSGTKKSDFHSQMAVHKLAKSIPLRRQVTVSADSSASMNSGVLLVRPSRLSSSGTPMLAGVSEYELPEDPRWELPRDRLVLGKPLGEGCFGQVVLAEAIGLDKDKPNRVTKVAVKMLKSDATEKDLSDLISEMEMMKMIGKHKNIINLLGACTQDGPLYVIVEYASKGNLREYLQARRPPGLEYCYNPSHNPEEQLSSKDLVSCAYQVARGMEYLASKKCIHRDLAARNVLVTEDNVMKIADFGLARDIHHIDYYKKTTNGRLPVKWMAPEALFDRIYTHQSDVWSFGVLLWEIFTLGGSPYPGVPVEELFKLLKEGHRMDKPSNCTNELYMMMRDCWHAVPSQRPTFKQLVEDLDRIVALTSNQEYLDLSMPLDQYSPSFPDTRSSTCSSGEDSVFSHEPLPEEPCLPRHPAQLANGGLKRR
T2 sequence (P22607 23-806): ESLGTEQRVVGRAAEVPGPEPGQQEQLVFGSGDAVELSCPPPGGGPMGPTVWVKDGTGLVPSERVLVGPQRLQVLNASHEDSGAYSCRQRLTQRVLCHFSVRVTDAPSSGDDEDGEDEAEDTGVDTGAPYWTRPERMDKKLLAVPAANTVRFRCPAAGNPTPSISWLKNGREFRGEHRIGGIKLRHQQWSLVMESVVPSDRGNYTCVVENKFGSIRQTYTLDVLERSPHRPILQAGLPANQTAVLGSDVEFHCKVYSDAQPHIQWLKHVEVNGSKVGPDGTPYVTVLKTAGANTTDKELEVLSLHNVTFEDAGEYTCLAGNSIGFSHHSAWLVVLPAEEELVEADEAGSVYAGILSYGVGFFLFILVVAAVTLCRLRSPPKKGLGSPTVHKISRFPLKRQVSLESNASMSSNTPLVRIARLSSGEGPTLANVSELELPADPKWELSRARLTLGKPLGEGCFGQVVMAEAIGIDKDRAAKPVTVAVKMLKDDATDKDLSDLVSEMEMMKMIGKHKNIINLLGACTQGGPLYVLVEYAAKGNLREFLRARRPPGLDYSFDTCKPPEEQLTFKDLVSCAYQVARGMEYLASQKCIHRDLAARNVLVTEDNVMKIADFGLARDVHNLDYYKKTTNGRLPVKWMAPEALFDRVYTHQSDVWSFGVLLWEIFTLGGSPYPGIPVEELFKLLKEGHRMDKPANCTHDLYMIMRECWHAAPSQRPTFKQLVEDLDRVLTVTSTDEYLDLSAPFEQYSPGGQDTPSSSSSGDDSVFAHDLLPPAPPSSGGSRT
T1 sequence (P21802 22-821): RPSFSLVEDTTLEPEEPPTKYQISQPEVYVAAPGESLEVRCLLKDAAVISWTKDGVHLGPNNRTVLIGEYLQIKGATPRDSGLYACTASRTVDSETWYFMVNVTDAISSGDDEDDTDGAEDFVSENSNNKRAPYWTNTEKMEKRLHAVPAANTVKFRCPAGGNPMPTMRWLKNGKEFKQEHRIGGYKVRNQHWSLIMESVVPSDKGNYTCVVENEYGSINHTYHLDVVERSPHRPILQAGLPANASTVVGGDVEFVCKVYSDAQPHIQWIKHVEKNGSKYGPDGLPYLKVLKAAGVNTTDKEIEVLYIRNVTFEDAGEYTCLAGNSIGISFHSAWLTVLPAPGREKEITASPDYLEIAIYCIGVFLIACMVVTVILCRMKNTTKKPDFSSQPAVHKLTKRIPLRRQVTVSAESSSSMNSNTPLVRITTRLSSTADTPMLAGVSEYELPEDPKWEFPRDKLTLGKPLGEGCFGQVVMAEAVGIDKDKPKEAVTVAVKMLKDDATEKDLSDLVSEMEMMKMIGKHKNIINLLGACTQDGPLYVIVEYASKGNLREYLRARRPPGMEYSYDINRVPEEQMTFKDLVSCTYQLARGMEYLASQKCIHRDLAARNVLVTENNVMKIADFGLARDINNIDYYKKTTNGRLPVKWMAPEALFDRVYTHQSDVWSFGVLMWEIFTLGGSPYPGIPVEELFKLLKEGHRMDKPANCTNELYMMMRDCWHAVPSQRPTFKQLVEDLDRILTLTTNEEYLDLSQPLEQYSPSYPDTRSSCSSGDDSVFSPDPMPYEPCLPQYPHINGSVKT

Row | SMILES | pIC50 (FGFR2) | pIC50 (SNU16 cells) | Selectivity FGFR3/FGFR2 (FGFR3) | Selectivity FGFR1/FGFR2 (FGFR1)
1 | C=CC(=O)Nc1ccc(-c2c(-c3ccc(C(=O)NC4CC(F)(F)C4)c(OC)c3)c3c(N)ncc(C#N)c3n2C)cc1 [Compound 188, 4-(2-(4-acrylamidophenyl)-4-amino-7-cyano-1-methyl-1H-pyrrolo[3,2-c]pyridin-3-yl)-N-(3,3-difluorocyclobutyl)-2-methoxybenzamide] | > 8.30 | ≥ 8.00 | B (Selectivity of FGFR3/FGFR2 less than 100 but greater than or equal to 25) | B (Selectivity of FGFR1/FGFR2 less than 300 but greater than or equal to 200)
2 | C=CC(=O)Nc1ccc(-c2nn3ncnc(N)c3c2-c2ccc(C(=O)NC3CC3)c(OC)c2)cc1 [Compound 89, 4-(6-(4-acrylamidophenyl)-4-aminopyrazolo[5,1-f] [1,2,4]triazin-5-yl)-N-cyclopropyl-2-methoxybenzamide] | > 8.30 | ≥ 8.00 | A+ (Selectivity of FGFR3/FGFR2 greater or equal to 150) | A+ (Selectivity of FGFR1/FGFR2 greater or equal to 500)
3 | C=C(F)C(=O)Nc1ccc(-c2nn3ncnc(N)c3c2-c2ccc(C(=O)NC3CCCC3)c(OC)c2)cc1 [Compound 93, 4-(4-amino-6-(4-(2-fluoroacrylamido)phe-nyl)pyrazolo[5,1-f] [1,2,4]triazin-5-yl)-N-cyclopentyl-2-methoxybenzamide] | < 8.00 | ≥ 8.00 | A+ (Selectivity of FGFR3/FGFR2 greater or equal to 150) | A+ (Selectivity of FGFR1/FGFR2 greater or equal to 500)
4 | C=C(F)C(=O)Nc1ccc(-n2nc3c(=O)[nH]nc(N)c3c2-c2ccc(C(=O)NC3CCC3)c(OC)c2)cc1 [Compound 137, 4-(4-amino-2-(4-(2-fluoroacrylamido)phe-nyl)-7-oxo-6,7-dihydro-2H-pyrazolo[3,4-d]pyridazin-3-yl)-N-cyclobutyl-2-methoxybenzamide] | 8.00 to 8.30 | 7.30 to 8.00 | A+ (Selectivity of FGFR3/FGFR2 greater or equal to 150) | A+ (Selectivity of FGFR1/FGFR2 greater or equal to 500)
5 | C=CC(=O)Nc1ccc(-c2c(-c3cc(F)c(Oc4ncc(F)c(C)n4)c(F)c3)c3c(N)ncc(C#N)c3n2C)cc1 [Compound 497] | > 8.30 | ≥ 8.00 | A+ (Selectivity of FGFR3/FGFR2 greater or equal to 150) | A+ (Selectivity of FGFR1/FGFR2 greater or equal to 500)
6 | C=C(F)C(=O)Nc1ccc(-c2nn3ncnc(N)c3c2-c2ccc(C(=O)NC3CC3)c(OC)c2)c(F)c1 [Compound 153, 4-(4-amino-6-(2-fluoro-4-(2-fluoroacrylamido)phenyl)pyrazolo[5,1-f][1,2,4]triazin-5-yl)-N-cyclopropyl-2-methoxybenzamide] | > 8.30 | ≥ 8.00 | A+ (Selectivity of FGFR3/FGFR2 greater or equal to 150) | A+ (Selectivity of FGFR1/FGFR2 greater or equal to 500)
7 | C=CC(=O)Nc1ccc(-c2c(-c3ccc(C(=O)NC(C)C)c(OC)c3)c3c(N)ncc(C#N)c3n2C)cc1 [Compound 108, 4-(2-(4-acrylamidophenyl)-4-amino-7-cyano-1-methyl-1H-pyrrolo[3,2-c]pyridin-3-yl)-N-isopropyl-2-methoxybenzamide] | > 8.30 | ≥ 8.00 | A (Selectivity of FGFR3/FGFR2 less than 150 but greater than or equal to 100) | A+ (Selectivity of FGFR1/FGFR2 greater or equal to 500)
8 | C=CC(=O)Nc1ccc(-c2c(-c3ccc(C(=O)NC4(C)CC4)c(OC)c3)c3c(N)ncc(C#N)c3n2C)cc1 [Compound 169] | > 8.30 | ≥ 8.00 | B (Selectivity of FGFR3/FGFR2 less than 100 but greater than or equal to 25) | A+ (Selectivity of FGFR1/FGFR2 greater or equal to 500)
9 | C=C(F)C(=O)Nc1ccc(-c2nn3ncnc(N)c3c2-c2ccc(C(=O)NCC(F)(F)F)c(OC)c2)c(C)c1 [Compound 101, 4-(4-amino-6-(4-(2-fluoroacrylamido)-2-methylphenyl)pyrazolo[5,1-f][1,2,4]triazin-5-yl)-2-methoxy-N-(2,2,2-trifluoroethyl)benzamide] | > 8.30 | ≥ 8.00 | B (Selectivity of FGFR3/FGFR2 less than 100 but greater than or equal to 25) | A+ (Selectivity of FGFR1/FGFR2 greater or equal to 500)
10 | C=CC(=O)Nc1ccc(-c2nn3ncnc(N)c3c2-c2ccc(C(=O)NC3CC3)c(OC)c2)c(OC)c1 [Compound 154, 4-(6-(4-acrylamido-2-methoxyphenyl)-4-aminopyrazolo[5,1-f][1,2,4]triazin-5-yl)-N-cyclopropyl-2-methoxybenzamide] | > 8.30 | ≥ 8.00 | A (Selectivity of FGFR3/FGFR2 less than 150 but greater than or equal to 100) | A+ (Selectivity of FGFR1/FGFR2 greater or equal to 500)
11 | C=C(F)C(=O)Nc1ccc(-c2nn3ncnc(N)c3c2-c2ccc(C(=O)NC3(C(F)(F)F)CC3)c(OC)c2)c(F)c1 [Compound 356] | > 8.30 | ≥ 8.00 | A (Selectivity of FGFR3/FGFR2 less than 150 but greater than or equal to 100) | A (Selectivity of FGFR1/FGFR2 less than 500 but greater than or equal to 300)
12 | C=CC(=O)Nc1ccc(-c2nn3ncnc(N)c3c2-c2ccc(C(=O)NCC(F)(F)F)c(OC)c2)c(OC)c1 [Compound 85, 4-(6-(4-acrylamido-2-methoxyphenyl)-4-aminopyrazolo[5,1-f] [1,2,4]triazin-5-yl)-2-methoxy-N-(2,2,2-trifluoroethyl)benzamide] | > 8.30 | ≥ 8.00 | A+ (Selectivity of FGFR3/FGFR2 greater or equal to 150) | A+ (Selectivity of FGFR1/FGFR2 greater or equal to 500)
13 | C=CC(=O)Nc1ccc(-c2nn3ncnc(N)c3c2-c2ccc(C(=O)NC3CC(F)C3)c(OC)c2)cc1 (stereo not shown) [Compound 184, 4-(6-(4-acrylamidophenyl)-4-aminopyrazolo[5,1-f][1,2,4]triazin-5-yl)-N-(3-fluorocyclobutyl)-2-methoxybenzamide] | > 8.30 | ≥ 8.00 | A+ (Selectivity of FGFR3/FGFR2 greater or equal to 150) | A (Selectivity of FGFR1/FGFR2 less than 500 but greater than or equal to 300)
14 | C=CC(=O)Nc1ccc(-c2nn3ncnc(N)c3c2-c2ccc(OC3CCCCC3)cc2)cc1 [Compound 228, N-(4-(4-amino-5-(4-(cyclohexyloxy)phenyl)pyrazolo[5,1-f][1,2,4]triazin-6-yl)phenyl)acrylamide] | 8.00 to 8.30 | ≥ 8.00 | A+ (Selectivity of FGFR3/FGFR2 greater or equal to 150) | A+ (Selectivity of FGFR1/FGFR2 greater or equal to 500)
15 | C=CC(=O)Nc1ccc(-c2c(-c3ccc(C(=O)NCC(F)(F)F)c(OC)c3)c3c(N)ncc(C#N)c3n2CCOC)cc1 [Compound 318, 4-(2-(4-acrylamidophenyl)-4-amino-7-cyano-1-(2-methoxyethyl)-1H-pyrrolo[3,2-c]pyridin-3-yl)-2-methoxy-N-(2,2,2-trifluoroethyl)benzamide] | > 8.30 | ≥ 8.00 | A (Selectivity of FGFR3/FGFR2 less than 150 but greater than or equal to 100) | C (Selectivity of FGFR1/FGFR2 less than 200 but greater than or equal to 100)
16 | C=CC(=O)Nc1ccc(-c2nn3ncnc(N)c3c2-c2ccc(C(=O)NCC3CCC3)c(OC)c2)cc1 [Compound 45, 4-(6-(4-acrylamidophenyl)-4-aminopyrazolo[5,1-f] [1,2,4]triazin-5-yl)-N-(cyclobutylmethyl)-2-methoxybenzamide] | > 8.30 | ≥ 8.00 | B (Selectivity of FGFR3/FGFR2 less than 100 but greater than or equal to 25) | B (Selectivity of FGFR1/FGFR2 less than 300 but greater than or equal to 200)
17 | C=CC(=O)Nc1ccc(-c2c(-c3ccc(C(=O)NCC)c(OC)c3)c3c(N)ncc(C#N)c3n2C)cc1 [Compound 107, 4-(2-(4-acrylamidophenyl)-4-amino-7-cyano-1-methyl-1H-pyrrolo[3,2-c]pyridin-3-yl)-N-ethyl-2-methoxybenzamide] | > 8.30 | ≥ 8.00 | A (Selectivity of FGFR3/FGFR2 less than 150 but greater than or equal to 100) | A+ (Selectivity of FGFR1/FGFR2 greater or equal to 500)
18 | C=C(F)C(=O)Nc1ccc(-c2nn3ncnc(N)c3c2-c2ccc(C(=O)NC34CC(C3)C4)c(OC)c2)c(F)c1 [Compound 357, 4-(4-amino-6-(2-fluoro-4-(2-fluoroacryl amido)phenyl)pyrazolo[5,1-f][1,2,4]triazin-5-yl)-N-(bicyclo[1.1.1]pentan-1-yl)-2-methoxybenzamide] | > 8.30 | ≥ 8.00 | A+ (Selectivity of FGFR3/FGFR2 greater or equal to 150) | A (Selectivity of FGFR1/FGFR2 less than 500 but greater than or equal to 300)
19 | C=CC(=O)Nc1ccc(-c2c(-c3ccc(C(=O)NCCF)c(OC)c3)c3c(N)ncc(C#N)c3n2C)cc1 [Compound 189, 4-(2-(4-acrylamidophenyl)-4-amino-7-cyano-1-methyl-1H-pyrrolo[3,2-c]pyridin-3-yl)-N-(2-fluoroethyl)-2-methoxybenzamide] | > 8.30 | ≥ 8.00 | B (Selectivity of FGFR3/FGFR2 less than 100 but greater than or equal to 25) | B (Selectivity of FGFR1/FGFR2 less than 300 but greater than or equal to 200)

Reference: patent US20240383905A1, “FGFR INHIBITORS AND METHODS OF USE THEREOF” (3H PHARMACEUTICALS CO., LTD., priority 2021, published 2024)
